Laboratory results taken from ChEMBL document CHEMBL5131475, “Metallo-β-lactamases inhibitor fisetin attenuates meropenem resistance in NDM-1-producing Escherichia coli” (Eur J Med Chem, 2022).
Converted amounts (≈) assume the structure as drawn. The source made the active and inactive calls. No cut-off for these calls is given here.

Key:
[1] = tested on: Escherichia coli; assay: Antibacterial activity against NDM-1 positive Escherichia coli ZC-YN3 isolates assessed as imipenem MIC incubated for 18 to 24 hrs by CLSI based broth microdilution method; type: functional; settings: time 18-24 hrs
[2] = tested on: Escherichia coli; assay: Synergistic antibacterial activity against pET28a NDM-1 positive Escherichia coli BL21(DE3) isolates assessed as fractional Inhibitory concentration index incubated for 18 to 24 hrs in presence of vancomycin by CLSI based broth microdilution method; type: functional; settings: time 18-24 hrs
[3] = tested on: Escherichia coli; assay: Synergistic antibacterial activity against NDM-1 negative Escherichia coli ATCC25922 isolates assessed as fractional Inhibitory concentration index incubated for 18 to 24 hrs in presence of meropenem by CLSI based broth microdilution method; type: functional; settings: time 18-24 hrs
[4] = tested on: Escherichia coli; assay: Synergistic antibacterial activity against pET28a NDM-1 positive Escherichia coli BL21(DE3) isolates assessed as fractional Inhibitory concentration index incubated for 18 to 24 hrs in presence of meropenem by CLSI based broth microdilution method; type: functional; settings: time 18-24 hrs
[5] = tested on: Escherichia coli; assay: Antibacterial activity against pET28a-NDM-1 positive Escherichia coli BL21(DE3) isolates assessed as colistin MIC incubated for 18 to 24 hrs by CLSI based broth microdilution method; type: functional; settings: time 18-24 hrs
[6] = tested on: Escherichia coli; assay: Antibacterial activity against pET28a-NDM-1 positive Escherichia coli BL21(DE3) isolates assessed as cefotaxime MIC incubated for 18 to 24 hrs by CLSI based broth microdilution method; type: functional; settings: time 18-24 hrs
[7] = tested on: Escherichia coli; assay: Antibacterial activity against NDM-1 positive Escherichia coli ZC-YN3 isolates assessed as meropenem MIC incubated for 18 to 24 hrs by CLSI based broth microdilution method; type: functional; settings: time 18-24 hrs
[8] = tested on: Escherichia coli; assay: Antibacterial activity against pET28a-NDM-1 positive Escherichia coli BL21(DE3) isolates assessed as ampicillin MIC incubated for 18 to 24 hrs by CLSI based broth microdilution method; type: functional; settings: time 18-24 hrs
[9] = tested on: Escherichia coli; assay: Synergistic antibacterial activity against pET28a NDM-1 positive Escherichia coli BL21(DE3) isolates assessed as fractional Inhibitory concentration index incubated for 18 to 24 hrs in presence of imipenem by CLSI based broth microdilution method; type: functional; settings: time 18-24 hrs
[10] = tested on: Escherichia coli; assay: Antibacterial activity against pET28a-NDM-1 positive Escherichia coli BL21(DE3) isolates assessed as tetracycline MIC incubated for 18 to 24 hrs by CLSI based broth microdilution method; type: functional; settings: time 18-24 hrs
[11] = Inhibition of metallo-beta-lactamase VIM-1 (unknown origin) using nitrocefin as substrate preincubated for 15 min followed by substrate addition and measured after 15 min by microplate reader assay; parameters: species or system Bacteria
[12] = tested on: Bacteria; assay: Inhibition of NDM-1 V73A mutant activity (unknown origin) in presence of zinc ion
[13] = tested on: Escherichia coli; assay: Antibacterial activity against NDM-1 positive Escherichia coli ZC-YN3 isolates assessed as colistin MIC incubated for 18 to 24 hrs by CLSI based broth microdilution method; type: functional; settings: time 18-24 hrs
[14] = tested on: Escherichia coli; assay: Antibacterial activity against NDM-1 positive Escherichia coli ZC-YN3 isolates assessed as doxycycline MIC incubated for 18 to 24 hrs by CLSI based broth microdilution method; type: functional; settings: time 18-24 hrs
[15] = tested on: Escherichia coli; assay: Synergistic antibacterial activity against NDM-1 positive Escherichia coli ZC-YN3 isolates assessed as fractional Inhibitory concentration index incubated for 18 to 24 hrs in presence of ciprofloxacin by CLSI based broth microdilution method; type: functional; settings: time 18-24 hrs
[16] = tested on: Escherichia coli; assay: Antibacterial activity against pET28a-NDM-1 positive Escherichia coli BL21(DE3) isolates assessed as meropenem MIC incubated for 18 to 24 hrs by CLSI based broth microdilution method; type: functional; settings: time 18-24 hrs
[17] = tested on: Bacteria
Description: Binding affinity to NDM-1 M248A mutant (unknown origin) assessed as binding constant by fluorescence quenching method

[18] = tested on: Escherichia coli; assay: Antibacterial activity against pET28a-NDM-1 positive Escherichia coli BL21(DE3) isolates assessed as imipenem MIC incubated for 18 to 24 hrs by CLSI based broth microdilution method; type: functional; settings: time 18-24 hrs
[19] = tested on: Escherichia coli; assay: Antibacterial activity against NDM-1 positive MCR1 carrying Escherichia coli ZJ487 isolates assessed as meropenem MIC incubated for 18 to 24 hrs by CLSI based broth microdilution method; type: functional; settings: time 18-24 hrs
[20] = tested on: Escherichia coli; assay: Antibacterial activity against NDM-1 positive Escherichia coli ZC-YN3 isolates assessed as vancomycin MIC incubated for 18 to 24 hrs by CLSI based broth microdilution method; type: functional; settings: time 18-24 hrs
[21] = tested on: Bacteria; assay: Binding affinity to NDM-1 V73A mutant (unknown origin) assessed as binding free energy by fluorescence quenching method
[22] = tested on: Escherichia coli; assay: Antibacterial activity against pET28a-NDM-1 positive Escherichia coli BL21(DE3) isolates assessed as spectinomycin MIC incubated for 18 to 24 hrs by CLSI based broth microdilution method; type: functional; settings: time 18-24 hrs
[23] = tested on: Escherichia coli; assay: Synergistic antibacterial activity against pET28a NDM-1 positive Escherichia coli BL21(DE3) isolates assessed as fractional Inhibitory concentration index incubated for 18 to 24 hrs in presence of doxycycline by CLSI based broth microdilution method; type: functional; settings: time 18-24 hrs
[24] = tested on: Escherichia coli; assay: Antibacterial activity against NDM-1 positive Escherichia coli ZC-YN3 isolates assessed as streptomycin MIC incubated for 18 to 24 hrs by CLSI based broth microdilution method; type: functional; settings: time 18-24 hrs
[25] = tested on: Escherichia coli; assay: Synergistic antibacterial activity against NDM-1 positive Escherichia coli ZC-YN3 isolates assessed as fractional Inhibitory concentration index incubated for 18 to 24 hrs in presence of kanamycin by CLSI based broth microdilution method; type: functional; settings: time 18-24 hrs
[26] = tested on: Bacteria; remark: listed apart in the source
Description: Binding affinity to NDM-1 H250A mutant (unknown origin) assessed as binding constant by fluorescence quenching method

[27] = tested on: Escherichia coli; assay: Synergistic antibacterial activity against NDM-1 positive Escherichia coli ZC-YN3 isolates assessed as fractional Inhibitory concentration index incubated for 18 to 24 hrs in presence of tetracycline by CLSI based broth microdilution method; type: functional; settings: time 18-24 hrs
[28] = tested on: Escherichia coli; assay: Synergistic antibacterial activity against pET28a NDM-1 positive Escherichia coli BL21(DE3) isolates assessed as fractional Inhibitory concentration index incubated for 18 to 24 hrs in presence of ciprofloxacin by CLSI based broth microdilution method; type: functional; settings: time 18-24 hrs
[29] = tested on: Escherichia coli; assay: Antibacterial activity against pET28a-NDM-1 positive Escherichia coli BL21(DE3) isolates assessed as vancomycin MIC incubated for 18 to 24 hrs by CLSI based broth microdilution method; type: functional; settings: time 18-24 hrs
[30] = tested on: Escherichia coli; assay: Synergistic antibacterial activity against NDM-1 positive Escherichia coli ZC-YN3 isolates assessed as fractional Inhibitory concentration index incubated for 18 to 24 hrs in presence of doxycycline by CLSI based broth microdilution method; type: functional; settings: time 18-24 hrs
[31] = tested on: Escherichia coli; assay: Synergistic antibacterial activity against NDM-1 negative Escherichia coli BL21(DE3) (pET28a) isolates assessed as fractional Inhibitory concentration index incubated for 18 to 24 hrs in presence of meropenem by CLSI based broth microdilution method; type: functional; settings: time 18-24 hrs
[32] = tested on: Escherichia coli; assay: Synergistic antibacterial activity against NDM-1 positive Escherichia coli ZC-YN3 isolates assessed as fractional Inhibitory concentration index incubated for 18 to 24 hrs in presence of florfenicol by CLSI based broth microdilution method; type: functional; settings: time 18-24 hrs
[33] = tested on: Bacteria; assay: Inhibition of NDM-1 H250A mutant activity (unknown origin) in presence of zinc ion
[34] = tested on: Bacteria; assay: Binding affinity to NDM-1 H250A mutant (unknown origin) assessed as binding free energy by fluorescence quenching method
[35] = tested on: Mus musculus; assay: Antibacterial activity in BALB/c mouse infected with NDM-1 positive Escherichia coli ZJ487 assessed as mouse death rate at 50 mg/kg, sc administered every 12 hrs and measured after 96 hrs post infection; type: functional

**Q.** For O=c1c(O)c(-c2ccc(O)c(O)c2)oc2cc(O)ccc12 [FISETIN], which MIC [1] is on record?
**A.** 6.67 mg/L

**Q.** What about the “fractional inhibitory concentration index (FICI)” value [2] of the same molecule?
**A.** 1.13

**Q.** And the “fractional inhibitory concentration index (FICI)” value [3]?
**A.** 1.13

**Q.** What about the “fractional inhibitory concentration index (FICI)” value [4] of the same molecule?
**A.** 0.25

**Q.** What about the MIC [5] of the same molecule?
**A.** 1.67 mg/L

**Q.** And the MIC [6]?
**A.** 512 mg/L

**Q.** And the MIC [7]?
**A.** 4 mg/L

**Q.** And the MIC [8]?
**A.** 683 mg/L

**Q.** And the “fractional inhibitory concentration index (FICI)” value [9]?
**A.** 0.46

**Q.** What about the MIC [10] of the same molecule?
**A.** 427 mg/L

**Q.** And the IC50 [11]?
**A.** 11.37 mg/L (≈ 39.7 µM)

**Q.** What about the inhibition [12] of the same molecule?
**A.** Active

**Q.** What about the MIC [13] of the same molecule?
**A.** 1.33 mg/L

**Q.** And the MIC [14]?
**A.** 53.3 mg/L

**Q.** What about the “fractional inhibitory concentration index (FICI)” value [15] of the same molecule?
**A.** 1.13

**Q.** What about the MIC [16] of the same molecule?
**A.** 4.67 mg/L

**Q.** And the Ka [17]?
**A.** 7.39 10^5L/mol

**Q.** And the MIC [18]?
**A.** 9.33 mg/L

**Q.** And the MIC [19]?
**A.** 5.33 mg/L

**Q.** What about the MIC [20] of the same molecule?
**A.** 427 mg/L

**Q.** What about the Activity [21] of the same molecule?
**A.** -78.3 kJ/mol

**Q.** And the MIC [22]?
**A.** 512 mg/L

**Q.** And the “fractional inhibitory concentration index (FICI)” value [23]?
**A.** 0.96

**Q.** And the MIC [24]?
**A.** 256 mg/L

**Q.** What about the “fractional inhibitory concentration index (FICI)” value [25] of the same molecule?
**A.** 1.13

**Q.** What about the Ka [26] of the same molecule?
**A.** 6.95 10^5L/mol

**Q.** And the “fractional inhibitory concentration index (FICI)” value [27]?
**A.** 1.13

**Q.** What about the “fractional inhibitory concentration index (FICI)” value [28] of the same molecule?
**A.** 0.96

**Q.** What about the MIC [29] of the same molecule?
**A.** 683 mg/L

**Q.** And the “fractional inhibitory concentration index (FICI)” value [30]?
**A.** 0.96

**Q.** And the “fractional inhibitory concentration index (FICI)” value [31]?
**A.** 1.13

**Q.** And the “fractional inhibitory concentration index (FICI)” value [32]?
**A.** 0.96

**Q.** And the inhibition [33]?
**A.** Active

**Q.** What about the Activity [34] of the same molecule?
**A.** -51.9 kJ/mol

**Q.** And the Activity [35]?
**A.** 90%
